Assay results taken from PMC2680390 (Journal of medicinal chemistry, 2008).

How the values were obtained:
[1] = target: ERβ/SRC-3 coactivator interaction (Homo sapiens, UniProt Q92731); assay: TR-FRET CBI assay, ERβ-LBD / SRC-3-NRD; assay type: binding; details: for TR-FRET Ki ERβ: estradiol present, fluorescein-SRC-3-NRD
[2] = system: HEC-1 cells; assay: CellTiter 96 AQueous One Solution Cell Proliferation Assay; assay type: cell-based; details: doses up to 20 μM
[3] = target: ERβ (Homo sapiens, UniProt Q92731); assay: Preliminary cell-based reporter gene systems, ERβ; details: preliminary studies
Chain of ERβ (Q92731 whole entry, the tested form may be a part): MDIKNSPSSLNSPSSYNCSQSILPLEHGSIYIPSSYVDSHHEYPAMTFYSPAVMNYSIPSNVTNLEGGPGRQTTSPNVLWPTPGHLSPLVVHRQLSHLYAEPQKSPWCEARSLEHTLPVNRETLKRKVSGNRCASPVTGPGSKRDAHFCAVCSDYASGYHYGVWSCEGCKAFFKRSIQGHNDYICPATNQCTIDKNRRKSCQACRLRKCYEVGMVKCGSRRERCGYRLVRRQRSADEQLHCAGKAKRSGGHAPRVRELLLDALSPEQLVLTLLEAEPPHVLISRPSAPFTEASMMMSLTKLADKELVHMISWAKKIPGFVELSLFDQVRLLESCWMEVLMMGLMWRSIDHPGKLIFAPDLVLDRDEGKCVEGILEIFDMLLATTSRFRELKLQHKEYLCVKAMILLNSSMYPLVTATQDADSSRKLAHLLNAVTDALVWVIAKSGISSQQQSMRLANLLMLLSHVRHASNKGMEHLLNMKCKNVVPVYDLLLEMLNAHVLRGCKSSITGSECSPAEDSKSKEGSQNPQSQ

[4] = target: T1, ERα/SRC-3 coactivator interaction (Homo sapiens, UniProt P03372, C381S/C530S); assay: TR-FRET CBI assay, ERα-LBD / SRC-3-NRD; assay type: binding; details: 1 μM estradiol, fluorescein-SRC-3-NRD 50 nM; for Ki: TR-FRET Ki ERα
T1 sequence (P03372 311-547 C381S/C530S limits assumed): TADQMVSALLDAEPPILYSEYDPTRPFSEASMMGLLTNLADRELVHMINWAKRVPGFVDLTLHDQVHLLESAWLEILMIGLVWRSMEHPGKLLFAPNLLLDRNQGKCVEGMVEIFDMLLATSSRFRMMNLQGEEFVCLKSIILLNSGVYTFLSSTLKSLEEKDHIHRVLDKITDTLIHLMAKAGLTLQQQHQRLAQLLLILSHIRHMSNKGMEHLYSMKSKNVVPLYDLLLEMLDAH

[5] = target: ERα coactivator binding; details: read-out: Ki by fluorescence polarization assay; FP assay; cited from earlier work
[6] = target: T2, ERβ ligand-binding domain (site-specifically labeled terbium/streptavidin-biotin/ER-LBD construct) (site-specifically labeled with biotin; bound to streptavidin-terbium in the assay); assay: FRET or BRET
T2 chain: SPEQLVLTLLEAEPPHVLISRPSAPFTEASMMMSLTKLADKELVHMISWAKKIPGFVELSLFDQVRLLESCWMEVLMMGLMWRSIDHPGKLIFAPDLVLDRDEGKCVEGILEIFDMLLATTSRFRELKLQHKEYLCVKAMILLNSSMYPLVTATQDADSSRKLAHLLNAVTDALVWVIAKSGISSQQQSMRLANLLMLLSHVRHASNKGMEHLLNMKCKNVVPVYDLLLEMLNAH

Question: What does the source list for `CC(C)CNc1cc(/C=C/c2ccccc2)nc(NCC(C)C)n1` [Compound 2a, N,N'-diisobutyl-(6-styryl-pyrimidin-2,4-yl)-diamine]?
Answer: Ki [1]: 242 µM; TR-FRET Ki ERβ [1]: very modest affinity for ERβ

Question: What does the source list for `CC(C)CNc1cc(CCc2ccccc2)nc(NCC(C)C)n1` [Compound 3a]?
Answer: Viable cell counts [2]: decreased significantly only at the highest doses of compound (20 μM); Mechanism-based inhibition of ERβ in cell-based reporter gene systems [3]: no mechanism-based inhibition of ERβ

Question: With `CC(C)CNc1nc(/C=C/c2ccccc2)cc(N(Cc2ccccc2)C(=O)OC(C)(C)C)n1` [Compound 8b] as the molecule, how does the “TR-FRET Ki ERα” value [4] read?
Answer: The value was “no activity for ERα”.

Question: And the “TR-FRET Ki ERβ” value [1]?
Answer: The value was “very modest affinity for ERβ”.

Question: For `CC(C)CNc1cc(/C=C/c2ccccc2)nc(NCc2ccccc2)n1` [Compound 10a, N^2-Benzyl-N^4-isobutyl-6-styryl-pyrimidine-2,4-diamine], which Viable cell counts [2] is on record?
Answer: The Viable cell counts was “decreased significantly only at the highest doses of compound (20 μM)”.

Question: For `CC(C)CCc1cc(NCC(C)C)nc(NCC(C)C)n1` [Compound 13b, 2,4-diisobutylamino-6-isoamylpyrimidine], which “Mechanism-based inhibition of ERβ in cell-based reporter gene systems” value [3] is on record?
Answer: The value was “no mechanism-based inhibition of ERβ”.

Question: And the Ki [5]?
Answer: The Ki was 29 µM.

Question: With `CC(C)CCc1cc(NCC(C)C)nc(NCc2ccccc2)n1` [Compound 18b] as the molecule, how does the Viable cell counts [2] read?
Answer: The Viable cell counts was “decreased significantly only at the highest doses of compound (20 μM)”.

Question: With `CC(C)CNc1cc(NCC(C)C)nc(NCC(C)C)n1` [Compound 25a, N,N',N''-Triisobutyl-pyrimidine-2,4,6-triamine] as the molecule, how does the Viable cell counts [2] read?
Answer: The Viable cell counts was “decreased significantly only at the highest doses of compound (20 μM)”.

Question: What about the “TR-FRET Ki ERβ” value [1] of the same molecule?
Answer: The value was “very modest affinity for ERβ”.

Question: With `CC(C)CSc1cc(SCC(C)C)nc(SCC(C)C)n1` [Compound 25e, 2,4,6-Tris-isobutylsulfanyl-pyrimidine] as the molecule, how does the Ki [4] read?
Answer: Its Ki is 120 µM.

Question: Which results are given for `CC(C)CNc1cc(Cl)nc(NCC(C)C)n1` [Compound 26, 2,4-diisobutylamino-6-chloropyrimidine]?
Answer: TR-FRET Ki ERα [4]: complete loss of activity; Ki [4]: > 1000 µM; Ki [1]: > 1000 µM

Question: Which Ki [4] does the source give for `CC(C)CNc1cc(NCc2ccccc2)nc(NCC(C)C)n1` [Compound 27a] here?
Answer: The Ki was 7.3 µM.

Question: What about the “Mechanism-based inhibition of ERβ in cell-based reporter gene systems” value [3] of the same molecule?
Answer: The value was “no mechanism-based inhibition of ERβ”.

Question: Which “TR-FRET Ki ERα” value [4] does the source give for `CC(C)CNc1cc(OCC(C)C)nc(NCC(C)C)n1` [Compound 27b] here?
Answer: Its value is “lack of activity”.

Question: Which “TR-FRET Ki ERα” value [4] does the source give for `CC(C)CNc1ccnc(NCC(C)C)n1` [Compound 27d, 2,4-diisobutylamino-pyrimidine] here?
Answer: The value was “complete loss of activity”.

Question: What about the Ki [4] of the same molecule?
Answer: The Ki was greater than 1000 µM.

Question: What about the Ki [1] of the same molecule?
Answer: Its Ki is greater than 1000 µM.

Question: Which “TR-FRET Ki ERα” value [4] does the source give for `CC(C)CNc1cc(S(=O)(=O)CC(C)C)nc(NCC(C)C)n1` [Compound 28] here?
Answer: Its value is “lack of activity”.

Question: With `CC(C)CCc1cc(NCC(C)C)nc(N(C)CC(C)C)n1` [Compound 31a] as the molecule, how does the “TR-FRET Ki ERα” value [4] read?
Answer: Its value is “activity is nearly fully restored”.

Question: With `CC(C)CNc1cc(CCc2cccc3ccccc23)nc(N(C)CC(C)C)n1` [Compound 31c] as the molecule, how does the “TR-FRET Ki ERα” value [4] read?
Answer: Its value is “inactive”.

Question: With `CC(C)CNc1cc(CCc2ccccc2)nc(N(C)CC(C)C)n1` [Compound 32, N^2-methyl-N^2,N^4-diisobutyl-(6-phenethyl-pyrimidin-2,4-yl)-diamine] as the molecule, how does the “TR-FRET Ki ERα” value [4] read?
Answer: Its value is “inactive”.

Question: With `CC(C)CCc1cc(N(C)CC(C)C)nc(NCC(C)C)n1` [Compound 34a] as the molecule, how does the “TR-FRET Ki ERα” value [4] read?
Answer: The value was “no binding is observed”.

Question: Which results are given for `CC(C)CCc1cc(NCC(C)C)nc(OCC(C)C)n1` [Compound 37a, [2-Isobutoxy-6-(3-methyl-butyl)-pyrimidin-4-yl]-isobutylamine]?
Answer: TR-FRET Ki ERα [4]: None of these O- or S-containing pyrimidines showed any inhibition; Viable cell counts [2]: decreased significantly only at the highest doses of compound (20 μM)

Question: With `CC(C)CCc1cc(NCC(C)C)nc(S(=O)(=O)CC(C)C)n1` [Compound 39, Isobutyl-[6-(3-methyl-butyl)-2-(2-methyl-propane-1-sulfonyl)-pyrimidin-4-yl]-amine] as the molecule, how does the “TR-FRET Ki ERα” value [4] read?
Answer: Its value is “None of these O- or S-containing pyrimidines showed any inhibition”.

Question: With LTERHKILHRLLQEGSPSD [unlabeled peptide containing the NR Box II (LXXLL motif) of SRC-1] as the molecule, how does the Ki [6] read?
Answer: The Ki was 0.066 µM.
